Experimental data published in patent US20090305993A1, “METHODS AND COMPOSITION FOR THE TREATMENT OF GASTROINTESTINAL DISORDERS” (IRONWOOD PHARMACEUTICALS, INC., priority 2006, published 2009).
Where a SMILES comes first, the peptide text is derived from it. Bridges are numbered along the chain shown (N, C = ends).

Assays:
CD rats = test: rat gastrointestinal transit assay; format: in vivo
Description: The gastrointestinal transit assay was also performed in male and female CD rats (Charles River; Wilmington, Mass.) weighing between 136-191 g with an average weight of 167.6 g. The assay was performed as described above for mice except an average of 5-8 animals were used for each test group and test peptide and 5% activated carbon were administered simultaneously (versus 7 minutes apart). In addition, the animals were sacrificed 10 minutes after the administration of peptide and test compound.

Male Wistar rats = test: TNBS visceral hypersensitivity rat model (colorectal distension, EMG); format: in vivo; settings: 0.3 μg/kg and 3 μg/kg, after TNBS, FIG. 7a
Description: Male Wistar rats (220-250 g) were premedicated with 0.5 mg/kg of acepromazine injected intraperitoneally (IP) and anesthetized by intramuscular administration of 100 mg/kg of ketamine. Pairs of nichrome wire electrodes (60 cm in length and 80 μm in diameter) were implanted in the striated muscle of the abdomen, 2 cm laterally from the white line. The free ends of electrodes were exteriorized on the back of the neck and protected by a plastic tube attached to the skin. Electromyographic (EMG) recordings were started 5 days after surgery. Electrical activity of abdominal striated muscle was recorded with an electroencephalograph machine (Mini VIII, Alvar, Paris, France) using a short time constant (0.03 sec.) to remove low-frequency signals (<3 Hz).
Ten days post surgical implantation, trinitrobenzenesulphonic acid (TNBS) was administered to induce rectal inflammation. TNBS (80 mg kg^−1 in 0.3 ml 50% ethanol) was administered intrarectally through a silicone rubber catheter introduced at 3 cm from the anus under light diethyl-ether anesthesia, as described (Morteau et al. 1994 Dig Dis Sci 39:1239). […] Evaluation of rectal sensitivity, as measured by EMG, was performed before (1-2 days) and 3 days following rectal instillation of TNBS.
The number of spike bursts that corresponds to abdominal contractions was determined per 5 min periods. […]

[1] = bioavailability study in mice, LCMS detection; format: in vivo; settings: CD1, mouse, serum, IV and oral, FIG. 10b, read-out: bioavailable
Description: A similar bioavailability study was performed in which LCMS rather than ELISA was used to detect SEQ ID NO:3. Initially, serum samples were extracted from the whole blood of exposed and control mice, then injected directly ([…]) onto an in-line solid phase extraction (SPE) column (Waters Oasis HLB 25 μm column, 2.0×15 mm direct connect) without further processing. The sample on the SPE column was washed with a 5% methanol, 95% dH2O solution (2.1 mL/min, 1.0 minute), then loaded onto an analytical column using a valve switch that places the SPE column in an inverted flow path onto the analytical column (Waters Xterra MS C8 5 μm IS column, 2.1×20 mm). The sample was eluted from the analytical column with a reverse phase gradient (Mobile Phase A: 10 mM ammonium hydroxide in dH2O, Mobile Phase B: 10 mM ammonium hydroxide in 80% acetonitrile and 20% methanol; 20% B for the first 3 minutes then ramping to 95% B over 4 min. and holding for 2 min., all at a flow rate of 0.4 mL/min.). At 9.1 minutes, the gradient returns to the initial conditions of 20% B for 1 min. SEQ ID NO:3 eluted from the analytical column at 1.45 minutes, and was detected by triple-quadrapole mass spectrometry (MRM, 764 (+2 charge state)>182 (+1 charge state) Da; cone voltage=30V; collision=20 eV; parent resolution=2 Da at base peak; daughter resolution=2 Da at base peak). […]

Female CD rats = test: ligated loop model in rats (cGMP, secretion); format: in vivo; settings: center loop of the rat small intestine, 5 μg, FIG. 17b
Description: In the case of the rat, however four loops of intestine were surgically ligated. The first three loops were distributed equally in the small intestine and the fourth loop was located in colon. […] SEQ ID NO:3 increases cGMP levels and secretion in the center loop of the rat small intestine as shown in FIG. 17b (n=9-10 animal per group for secretion assays; n=7-8 animals for cGMP assays).

pepsin = pepsin (Sus scrofa, UniProt P00791); settings: pH 2.0, 37° C., up to 3 h
pepsin, sequence (P00791 60-385): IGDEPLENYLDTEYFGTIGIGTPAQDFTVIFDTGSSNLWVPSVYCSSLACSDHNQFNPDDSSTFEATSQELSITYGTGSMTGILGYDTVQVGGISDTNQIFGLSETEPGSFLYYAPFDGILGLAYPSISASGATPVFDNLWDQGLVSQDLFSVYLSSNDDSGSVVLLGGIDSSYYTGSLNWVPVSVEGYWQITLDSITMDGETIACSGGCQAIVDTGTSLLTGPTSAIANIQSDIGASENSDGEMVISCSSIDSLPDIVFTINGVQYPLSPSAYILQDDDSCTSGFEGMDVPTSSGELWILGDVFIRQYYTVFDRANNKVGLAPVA
Description: Samples were collected at 0, 3, and 24 h for all conditions except pepsin digestion and the SGF. For the latter two conditions, samples were obtained at 0, 1, and 3 h. Negative control samples were prepared for initial and final time points. […] All samples were analyzed by LC/MS
500 μL samples of 100 U/mL pepsin (Pepsin porcine gastric mucosa; Sigma-Aldrich, P68871; U=release of 0.01 absorbance at 280 nm (A280) as TCA soluble hydrolysis products per min at 37° C. of hemoglobin) were prepared in the pepsin reaction buffer (100 mM HCl-KCl, pH 2.0) in 5 mL polystyrene round bottom tubes. To the control samples (0 and 24 h), 500 μL of a 1 M ammonium acetate (pepsin inhibitor) stock were added, for a final concentration of 0.5 M. All control and test samples (0, 1, and 3 h) were incubated at 37° C. for 5 min, while shaking. […] Samples were returned to the 37° C. shaking water bath. Reactions were quenched by the addition of 500 μL of 1 M ammonium acetate for a final concentration of 0.5 M (except to the control samples, which already contained 0.5 M ammonium acetate). Samples were cooled on ice and stored at 4° C. until analysis. Upon analysis, samples were transferred to a 1 mL 96-well plate. […] These standards were used to generate a standard curve for quantification of samples. Ten (10) μL injections were made of each sample and standard.

aminopeptidase = aminopeptidase (Sus scrofa, UniProt P15145); settings: 37° C., up to 24 h
aminopeptidase, sequence (P15145 whole entry): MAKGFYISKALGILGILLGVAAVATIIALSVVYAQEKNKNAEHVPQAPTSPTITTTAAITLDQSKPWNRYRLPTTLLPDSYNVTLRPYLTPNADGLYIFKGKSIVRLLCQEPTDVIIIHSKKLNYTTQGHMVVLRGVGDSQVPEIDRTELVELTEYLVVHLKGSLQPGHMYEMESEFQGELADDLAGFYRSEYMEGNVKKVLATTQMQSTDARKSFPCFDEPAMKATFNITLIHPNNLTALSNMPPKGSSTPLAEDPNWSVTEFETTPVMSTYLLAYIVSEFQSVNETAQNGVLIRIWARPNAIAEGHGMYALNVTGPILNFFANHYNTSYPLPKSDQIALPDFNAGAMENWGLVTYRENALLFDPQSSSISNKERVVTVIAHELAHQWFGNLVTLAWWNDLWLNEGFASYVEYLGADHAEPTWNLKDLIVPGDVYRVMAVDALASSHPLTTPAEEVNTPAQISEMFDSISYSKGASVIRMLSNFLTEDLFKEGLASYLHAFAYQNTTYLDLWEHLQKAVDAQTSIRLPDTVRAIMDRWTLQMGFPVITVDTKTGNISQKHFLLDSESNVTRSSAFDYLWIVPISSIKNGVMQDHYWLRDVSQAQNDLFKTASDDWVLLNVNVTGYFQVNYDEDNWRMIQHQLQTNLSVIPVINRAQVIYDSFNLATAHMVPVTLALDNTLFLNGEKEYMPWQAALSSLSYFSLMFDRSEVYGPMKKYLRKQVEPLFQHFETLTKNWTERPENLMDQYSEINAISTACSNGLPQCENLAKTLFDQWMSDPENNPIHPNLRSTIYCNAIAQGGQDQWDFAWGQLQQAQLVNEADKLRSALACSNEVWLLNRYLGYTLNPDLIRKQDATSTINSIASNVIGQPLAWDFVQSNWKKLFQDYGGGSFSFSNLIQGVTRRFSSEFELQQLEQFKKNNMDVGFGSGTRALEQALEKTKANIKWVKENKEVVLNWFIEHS
Description: The stability of SEQ ID NO:3 in the presence of several mammalian digestive enzymes was determined. SEQ ID NO:3 was exposed to a variety of in vitro conditions including digestive enzymes and low ph environments designed to simulate gastric fluid. SEQ ID NO:3 was incubated with chymotrypsin, trypsin, pepsin, aminopeptidase, carboxypeptidase A, and simulated gastric fluid (sgf) at ph 1.0. Samples were collected at 0, 3, and 24 h for all conditions except pepsin digestion and the SGF. For the latter two conditions, samples were obtained at 0, 1, and 3 h. Negative control samples were prepared for initial and final time points. A separate, positive activity control was run in parallel to SEQ ID NO:3. All samples were analyzed by LC/MS
500 μL samples of 0.01 mg/mL SEQ ID NO:3 and chemically synthesized SEQ ID NO:4 (wild type ST; positive control) were prepared in the aminopeptidase reaction buffer (5 mM Tris-HCl, 5 mM MgCl2, pH 7.5) in 2 mL eppendorf tubes. 5 μL of a 5 mg/mL Bestatin hydrochloride (BioChemika, 08170; an aminopeptidase inhibitor) stock was added to each control sample (0 and 24 h), for a final concentration of 0.05 mg/mL. All control and test samples (0, 3, and 24 h) were incubated at 37° C. for 5 min. […] These standards were used to generate a standard curve for quantification of samples. […]

mouse = test: phenylbenzoquinone (PBQ)-induced writhing model; settings: oral; SEQ ID NO:5 1 mg/kg, SEQ ID NO:3 2.5 mg/kg; versus vehicle control, FIGS. 8a, 8b

In the case of `C[C@@H]1NC(=O)[C@@H]2CCCN2C(=O)[C@H](CC(N)=O)NC(=O)[C@@H]2CSSC[C@H](N)C(=O)N[C@H]3CSSC[C@H](NC1=O)C(=O)N[C@@H]([C@@H](C)O)C(=O)NCC(=O)N[C@H](C(=O)N[C@@H](Cc1ccc(O)cc1)C(=O)O)CSSC[C@H](NC(=O)[C@H](Cc1ccc(O)cc1)NC(=O)[C@H](CCC(=O)O)NC3=O)C(=O)N2` [SEQ ID NO:3] (H-CCEYCCNPACTGCY-OH; disulfide 1-6, 2-10, 5-13; N-terminus and C-terminus assumed), the “intestinal transit, dose dependence” value (CD rats; female rats, FIG. 4e) is reported as “increases in a dose dependent manner”, the intestinal transit (CD rats; rat GIT assay, FIG. 4d) is reported as “intestinal transit increases” and the “abdominal response to colorectal distension” value (Male Wistar rats) is reported as “Significant decreases in abdominal response”. The bioavailability [1] was under 0.11%, the “cGMP levels in ligated loop” value (Female CD rats) was “increases” and the “secretion in ligated loop” value (Female CD rats) was “increases”. For the same compound, the “Cleavage of SEQ ID NO: 3 by proteolytic substance” value (pepsin) was “not detectable”, the “Cleavage of SEQ ID NO: 3 by proteolytic substance” value (aminopeptidase) was “not detectable” and the writhings (mouse) was “Significant reductions in writhings”.
